Reference: ChEMBL document CHEMBL6074715, “Discovery of pyridine-based derivatives as FLT3 inhibitors for the treatment of acute myeloid leukemia” (Eur J Med Chem, 2025)
Activity calls are given as the source filed them. No cut-off for these calls is given here.

Columns and labels:
[1] = target: Vascular endothelial growth factor receptor 3 (Homo sapiens, UniProt P35916); assay: Inhibition of human FLT4 assessed as residual activity at 1 uM by Eurofins kinase assay relative to control
[2] = target: Tyrosine-protein kinase Lck (Homo sapiens) (UniProt P06239); assay: Inhibition of human LCK at 1 uM by Eurofins kinase assay
[3] = system: Mast/stem cell growth factor receptor Kit (Homo sapiens), P10721 [V654A]; assay: Inhibition of human c-kit V654A mutant at 1 uM by Eurofins kinase assay
Mast/stem cell growth factor receptor Kit (Homo sapiens), P10721 [V654A], sequence (P10721 whole entry V654A): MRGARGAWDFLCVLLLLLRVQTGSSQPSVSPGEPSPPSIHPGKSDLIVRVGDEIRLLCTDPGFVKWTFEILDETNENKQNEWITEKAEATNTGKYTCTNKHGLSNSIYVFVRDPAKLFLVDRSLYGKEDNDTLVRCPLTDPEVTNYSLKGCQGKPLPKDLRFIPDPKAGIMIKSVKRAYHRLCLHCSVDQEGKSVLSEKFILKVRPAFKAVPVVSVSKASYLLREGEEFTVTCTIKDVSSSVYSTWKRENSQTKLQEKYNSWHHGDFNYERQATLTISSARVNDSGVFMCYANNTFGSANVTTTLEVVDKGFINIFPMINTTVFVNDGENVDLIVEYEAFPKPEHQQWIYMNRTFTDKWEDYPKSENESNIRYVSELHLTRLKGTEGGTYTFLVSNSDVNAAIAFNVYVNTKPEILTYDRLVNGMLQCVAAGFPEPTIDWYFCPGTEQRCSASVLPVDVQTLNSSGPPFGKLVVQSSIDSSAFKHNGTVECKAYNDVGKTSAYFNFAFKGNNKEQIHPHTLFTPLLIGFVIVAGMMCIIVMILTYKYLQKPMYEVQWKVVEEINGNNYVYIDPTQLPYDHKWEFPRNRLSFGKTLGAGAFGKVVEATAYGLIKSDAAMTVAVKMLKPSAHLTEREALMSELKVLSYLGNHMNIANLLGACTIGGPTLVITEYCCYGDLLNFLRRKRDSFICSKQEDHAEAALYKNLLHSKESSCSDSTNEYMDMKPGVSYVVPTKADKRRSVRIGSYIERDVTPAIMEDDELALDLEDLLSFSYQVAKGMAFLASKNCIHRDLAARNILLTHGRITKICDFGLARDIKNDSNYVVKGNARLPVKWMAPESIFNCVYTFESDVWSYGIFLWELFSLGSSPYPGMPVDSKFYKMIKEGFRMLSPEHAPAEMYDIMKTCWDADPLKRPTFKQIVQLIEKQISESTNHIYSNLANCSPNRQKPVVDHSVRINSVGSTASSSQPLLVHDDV

[4] = system: MOLM-13; assay: Induction of apoptosis in human MOLM-13 cells assessed as late apoptotic cells at 0.3 uM measured after 48 hrs by annexin-V and PI staining based flow cytometry analysis (reference value: 2.28%); format: functional
[5] = target: Fibroblast growth factor receptor 4 (Homo sapiens) (UniProt P22455); assay: Inhibition of human FGFR4 at 1 uM by Eurofins kinase assay
[6] = target: Inhibitor of nuclear factor kappa-B kinase subunit beta (Homo sapiens) (UniProt O14920); assay: Inhibition of human IKKB at 1 uM by Eurofins kinase assay
[7] = system: BaF3; assay: Antiproliferative activity against mouse BaF3 cells harbouring TEL-VEGFR2 assessed as inhibition of cell growth measured after 72 hrs by Celltiter-glo luminescent cell viability assay; format: functional, cell-based; details: BaF3, 72 h
[8] = Toxicity in female NSG mouse assessed as effect on lung at 20 to 40 mg/kg, po measured after 21 days by H and E staining based analysis; format: organism-based; details: in vivo, 504 h, dose 20-40 mg/kg, time 21 day
[9] = target: Dual specificity mitogen-activated protein kinase kinase 1 (Homo sapiens) (UniProt Q02750); assay: Inhibition of human MEK1 at 1 uM by Eurofins kinase assay
[10] = system: K562; assay: Antiproliferative activity against human K562 cells assessed as inhibition of cell growth measured after 72 hrs by Celltiter-glo luminescent cell viability assay; format: functional, cell-based; details: K562, 72 h
[11] = target: Fibroblast growth factor receptor 3 (Homo sapiens) (UniProt P22607); assay: Inhibition of human FGFR3 at 1 uM by Eurofins kinase assay
[12] = system: Mast/stem cell growth factor receptor Kit (Homo sapiens), P10721 [D816V]; assay: Inhibition of human c-kit D816V mutant at 1 uM by Eurofins kinase assay
Mast/stem cell growth factor receptor Kit (Homo sapiens), P10721 [D816V], sequence (P10721 whole entry D816V): as the sequence (P10721 whole entry V654A) above, with A654V, D816V counted along it

[13] = system: MOLM-13; assay: Induction of apoptosis in human MOLM-13 cells assessed as early apoptotic cells at 3 uM measured after 48 hrs by annexin-V and PI staining based flow cytometry analysis (reference value: 8.92%); format: functional
[14] = species on record: Homo sapiens; assay: Inhibition of human cSRC at 1 uM by Eurofins kinase assay
[15] = system: MOLM-13; assay: Induction of cell cycle arrest in human MOLM-13 cells assessed as accumulation of cells at G1 phase at 1 uM measured after 48 hrs by PI staining based flow cytometry analysis (reference value: 42.8%); format: functional
[16] = target: Mitogen-activated protein kinase kinase kinase 1 (Homo sapiens) (UniProt Q13233); assay: Inhibition of human MEKK1 at 1 uM by Eurofins kinase assay
Mitogen-activated protein kinase kinase kinase 1 (Homo sapiens), sequence (Q13233 whole entry): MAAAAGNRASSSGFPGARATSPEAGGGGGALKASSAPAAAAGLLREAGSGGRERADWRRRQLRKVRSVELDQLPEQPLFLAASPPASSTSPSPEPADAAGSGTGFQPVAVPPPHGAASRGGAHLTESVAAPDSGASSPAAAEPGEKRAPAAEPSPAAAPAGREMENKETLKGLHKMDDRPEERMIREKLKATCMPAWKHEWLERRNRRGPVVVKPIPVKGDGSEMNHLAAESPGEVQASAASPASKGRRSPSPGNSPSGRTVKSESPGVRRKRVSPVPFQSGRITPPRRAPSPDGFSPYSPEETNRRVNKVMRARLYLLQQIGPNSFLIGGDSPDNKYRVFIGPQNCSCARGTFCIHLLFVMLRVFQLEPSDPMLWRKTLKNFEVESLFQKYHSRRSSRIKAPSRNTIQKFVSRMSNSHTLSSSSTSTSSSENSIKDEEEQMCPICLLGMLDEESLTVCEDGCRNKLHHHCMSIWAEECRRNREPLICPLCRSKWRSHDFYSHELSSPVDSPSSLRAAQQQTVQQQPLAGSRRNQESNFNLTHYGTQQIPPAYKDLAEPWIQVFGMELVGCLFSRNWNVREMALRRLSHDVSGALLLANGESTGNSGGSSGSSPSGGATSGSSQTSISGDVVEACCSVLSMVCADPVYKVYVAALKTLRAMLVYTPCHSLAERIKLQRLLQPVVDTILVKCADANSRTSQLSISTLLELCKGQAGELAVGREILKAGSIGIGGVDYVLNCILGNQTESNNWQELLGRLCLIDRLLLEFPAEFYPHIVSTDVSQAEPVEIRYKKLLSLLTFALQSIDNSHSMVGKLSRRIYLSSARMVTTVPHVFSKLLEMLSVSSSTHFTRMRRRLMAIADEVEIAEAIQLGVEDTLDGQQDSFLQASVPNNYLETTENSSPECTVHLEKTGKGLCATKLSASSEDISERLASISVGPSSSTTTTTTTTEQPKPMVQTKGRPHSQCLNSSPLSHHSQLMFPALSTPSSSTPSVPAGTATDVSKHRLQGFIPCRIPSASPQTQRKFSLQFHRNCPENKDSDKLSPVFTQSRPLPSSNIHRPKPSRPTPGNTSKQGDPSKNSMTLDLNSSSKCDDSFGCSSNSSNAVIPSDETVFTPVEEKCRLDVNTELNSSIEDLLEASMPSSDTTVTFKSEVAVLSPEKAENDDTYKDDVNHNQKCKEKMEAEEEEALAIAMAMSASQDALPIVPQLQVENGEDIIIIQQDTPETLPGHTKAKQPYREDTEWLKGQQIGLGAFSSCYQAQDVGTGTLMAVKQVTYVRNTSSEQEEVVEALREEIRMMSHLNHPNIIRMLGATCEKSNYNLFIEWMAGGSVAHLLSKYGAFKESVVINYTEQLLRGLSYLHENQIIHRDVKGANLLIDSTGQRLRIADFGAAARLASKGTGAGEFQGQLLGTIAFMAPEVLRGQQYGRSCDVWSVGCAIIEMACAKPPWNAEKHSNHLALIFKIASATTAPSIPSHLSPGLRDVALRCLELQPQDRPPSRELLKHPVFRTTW

[17] = system: U-87 MG; assay: Antiproliferative activity against human U-87 MG cells assessed as inhibition of cell growth measured after 72 hrs by Celltiter-glo luminescent cell viability assay; format: functional, cell-based, U-87MG ATCC
[18] = Toxicity in female NSG mouse assessed as effect on spleen at 20 to 40 mg/kg, po measured after 21 days by H and E staining based analysis; format: organism-based; details: in vivo, 504 h, dose 20-40 mg/kg, time 21 day
[19] = target: Macrophage colony-stimulating factor 1 receptor (Homo sapiens, UniProt P07333); assay: Inhibition of FMS (unknown origin) preincubated for 10 mins followed by addition of peptide solution by caliper mobility shift assay
[20] = Clearance in Sprague-Dawley rat at 5 mg/kg, iv measured upto 48 hrs by LC-MS/MS analysis; format: ADME, organism-based; details: in vivo
[21] = target: Mast/stem cell growth factor receptor Kit (Homo sapiens) (UniProt P10721); assay: Inhibition of human ckit at 1 uM by Eurofins kinase assay
Mast/stem cell growth factor receptor Kit (Homo sapiens), sequence (P10721 whole entry): as the sequence (P10721 whole entry V654A) above, with A654V counted along it

[22] = system: MOLM-13; assay: Induction of cell cycle arrest in human MOLM-13 cells assessed as accumulation of cells at G1 phase at 3 uM measured after 48 hrs by PI staining based flow cytometry analysis (reference value: 42.8%); format: functional
[23] = system: MOLM-13; assay: Induction of cell cycle arrest in human MOLM-13 cells assessed as accumulation of cells at S phase at 3 uM measured after 48 hrs by PI staining based flow cytometry analysis (reference value: 45.3%); format: functional
[24] = AUC (0 to infinity) in Sprague-Dawley rat at 20 mg/kg, po measured upto 48 hrs by LC-MS/MS analysis; format: ADME, organism-based; details: in vivo
[25] = Half life in Sprague-Dawley rat at 20 mg/kg, po measured upto 48 hrs by LC-MS/MS analysis; format: ADME, organism-based; details: in vivo
[26] = target: Fibroblast growth factor receptor 2 (Homo sapiens) (UniProt P21802); assay: Inhibition of human FGFR2 at 1 uM by Eurofins kinase assay
[27] = species on record: Homo sapiens; assay: Inhibition of human Rct at 1 uM by Eurofins kinase assay
[28] = target: Receptor-type tyrosine-protein kinase FLT3 (Homo sapiens) (UniProt P36888); assay: Inhibition of FLT3 phosphorylation in human MOLM-13 cells incubated for 2 hrs by Western blot analysis; format: cell-based; details: dose 0.04-5 µM
[29] = target: Aurora kinase A (Homo sapiens) (UniProt O14965); assay: Inhibition of human AuroraA at 1 uM by Eurofins kinase assay
[30] = system: MOLM-13; assay: Induction of apoptosis in human MOLM-13 cells assessed as early apoptotic cells at 0.3 uM measured after 48 hrs by annexin-V and PI staining based flow cytometry analysis (reference value: 8.92%); format: functional
[31] = target: Receptor-interacting serine/threonine-protein kinase 1 (Homo sapiens) (UniProt Q13546); assay: Inhibition of human RIPK1 at 1 uM by Eurofins kinase assay
[32] = target: Tyrosine-protein kinase ABL1 (Homo sapiens) (UniProt P00519); assay: Inhibition of human ABL1 at 1 uM by Eurofins kinase assay
Tyrosine-protein kinase ABL1 (Homo sapiens), sequence (P00519 whole entry): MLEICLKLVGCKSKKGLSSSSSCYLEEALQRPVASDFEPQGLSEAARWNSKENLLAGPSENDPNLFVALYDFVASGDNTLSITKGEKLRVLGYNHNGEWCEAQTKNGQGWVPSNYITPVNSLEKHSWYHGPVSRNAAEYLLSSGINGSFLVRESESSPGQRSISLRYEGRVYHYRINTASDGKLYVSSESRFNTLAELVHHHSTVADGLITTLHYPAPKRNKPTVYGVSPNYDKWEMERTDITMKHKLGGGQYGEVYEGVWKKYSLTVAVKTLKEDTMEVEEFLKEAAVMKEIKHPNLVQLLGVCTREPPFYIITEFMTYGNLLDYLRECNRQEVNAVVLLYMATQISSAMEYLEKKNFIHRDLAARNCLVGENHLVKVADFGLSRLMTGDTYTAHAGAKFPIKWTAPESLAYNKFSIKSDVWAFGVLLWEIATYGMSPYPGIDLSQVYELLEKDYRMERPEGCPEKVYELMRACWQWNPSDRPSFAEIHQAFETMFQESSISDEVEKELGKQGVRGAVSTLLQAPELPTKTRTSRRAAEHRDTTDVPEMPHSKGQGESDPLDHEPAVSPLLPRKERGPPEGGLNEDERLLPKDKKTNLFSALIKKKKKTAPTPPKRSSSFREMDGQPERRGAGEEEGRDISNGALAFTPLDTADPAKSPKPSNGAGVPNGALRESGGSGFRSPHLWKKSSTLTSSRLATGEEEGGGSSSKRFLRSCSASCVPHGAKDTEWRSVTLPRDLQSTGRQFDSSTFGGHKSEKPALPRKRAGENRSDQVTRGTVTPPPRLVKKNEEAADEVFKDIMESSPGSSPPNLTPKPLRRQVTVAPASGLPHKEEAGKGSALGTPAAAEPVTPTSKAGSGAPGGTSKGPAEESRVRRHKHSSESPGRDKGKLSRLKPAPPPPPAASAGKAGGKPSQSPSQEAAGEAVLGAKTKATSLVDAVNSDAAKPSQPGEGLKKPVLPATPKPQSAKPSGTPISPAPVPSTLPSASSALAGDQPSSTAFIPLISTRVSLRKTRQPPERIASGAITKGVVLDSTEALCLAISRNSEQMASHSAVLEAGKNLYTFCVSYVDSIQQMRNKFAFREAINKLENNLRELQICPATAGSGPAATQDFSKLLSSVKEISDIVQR

[33] = system: EBC-1; assay: Antiproliferative activity against human EBC-1 cells assessed as inhibition of cell growth measured after 72 hrs by Celltiter-glo luminescent cell viability assay; format: functional, cell-based; details: EBC-1, 72 h
[34] = system: MOLM-13; assay: Induction of apoptosis in human MOLM-13 cells assessed as necrotic cells at 0.3 uM measured after 48 hrs by annexin-V and PI staining based flow cytometry analysis (reference value: 0.087%); format: functional
[35] = target: Angiopoietin-1 receptor (Homo sapiens) (UniProt Q02763); assay: Inhibition of human […] at 1 uM by Eurofins kinase assay
[36] = target: Aurora kinase B (Homo sapiens) (UniProt Q96GD4); assay: Inhibition of human AuroraB at 1 uM by Eurofins kinase assay
[37] = target: Death-associated protein kinase 1 (Homo sapiens) (UniProt P53355); assay: Inhibition of human DAPK1 at 1 uM by Eurofins kinase assay
Death-associated protein kinase 1 (Homo sapiens), sequence (P53355 whole entry, looked up): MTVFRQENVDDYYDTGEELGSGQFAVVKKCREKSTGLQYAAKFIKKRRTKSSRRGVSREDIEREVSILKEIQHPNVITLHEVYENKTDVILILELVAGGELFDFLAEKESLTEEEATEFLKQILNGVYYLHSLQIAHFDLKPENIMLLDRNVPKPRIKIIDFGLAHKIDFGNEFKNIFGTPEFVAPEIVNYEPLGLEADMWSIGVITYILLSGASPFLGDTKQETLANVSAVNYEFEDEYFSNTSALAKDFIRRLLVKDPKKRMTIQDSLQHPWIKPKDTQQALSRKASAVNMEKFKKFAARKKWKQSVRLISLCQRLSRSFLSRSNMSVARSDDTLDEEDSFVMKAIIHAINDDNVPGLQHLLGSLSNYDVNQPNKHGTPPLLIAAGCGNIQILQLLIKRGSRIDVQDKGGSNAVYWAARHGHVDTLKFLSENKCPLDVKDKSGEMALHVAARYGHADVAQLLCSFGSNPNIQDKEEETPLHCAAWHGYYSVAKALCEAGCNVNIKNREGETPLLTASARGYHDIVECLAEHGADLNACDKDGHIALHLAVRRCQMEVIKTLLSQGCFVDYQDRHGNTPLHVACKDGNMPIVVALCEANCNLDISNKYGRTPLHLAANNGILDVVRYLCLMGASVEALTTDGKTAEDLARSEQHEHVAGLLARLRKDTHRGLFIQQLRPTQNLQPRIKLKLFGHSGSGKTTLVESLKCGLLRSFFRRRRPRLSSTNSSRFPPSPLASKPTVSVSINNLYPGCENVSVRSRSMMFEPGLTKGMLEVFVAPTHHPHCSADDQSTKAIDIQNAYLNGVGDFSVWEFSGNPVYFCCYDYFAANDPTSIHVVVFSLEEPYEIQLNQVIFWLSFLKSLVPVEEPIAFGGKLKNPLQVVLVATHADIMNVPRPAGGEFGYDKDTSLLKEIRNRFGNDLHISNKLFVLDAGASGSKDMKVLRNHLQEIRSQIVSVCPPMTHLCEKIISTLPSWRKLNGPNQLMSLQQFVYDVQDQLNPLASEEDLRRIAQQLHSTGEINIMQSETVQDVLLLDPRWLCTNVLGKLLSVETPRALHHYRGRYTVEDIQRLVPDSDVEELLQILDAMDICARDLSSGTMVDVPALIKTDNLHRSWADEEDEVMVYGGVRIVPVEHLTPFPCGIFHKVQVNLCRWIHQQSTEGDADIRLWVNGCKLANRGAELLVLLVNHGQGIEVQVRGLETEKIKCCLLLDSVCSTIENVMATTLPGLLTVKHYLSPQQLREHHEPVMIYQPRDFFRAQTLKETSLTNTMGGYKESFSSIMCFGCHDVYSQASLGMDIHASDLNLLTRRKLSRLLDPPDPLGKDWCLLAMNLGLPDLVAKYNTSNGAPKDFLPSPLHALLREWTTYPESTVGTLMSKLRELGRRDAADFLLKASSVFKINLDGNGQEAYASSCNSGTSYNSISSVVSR

[38] = system: MOLM-13; assay: Induction of apoptosis in human MOLM-13 cells assessed as necrotic cells at 3 uM measured after 48 hrs by annexin-V and PI staining based flow cytometry analysis (reference value: 0.087%); format: functional
[39] = target: Tyrosine-protein kinase BTK (Homo sapiens) (UniProt Q06187); assay: Inhibition of human BTK at 1 uM by Eurofins kinase assay

O=C(Nc1ccc(Oc2ccnc(NC(=O)N3CC(O)C3)c2)c(F)c1)c1cn(-c2cccnc2)nn1
Activity [1]: 22% | inhibition [2]: inactive | inhibition [3]: inactive | Activity [4]: 6.54% | inhibition [5]: inactive | inhibition [6]: inactive | IC50 [7]: 0.29 µM | Activity [8]: Non-toxic | inhibition [9]: inactive | IC50 [10]: 16.6 µM | inhibition [11]: inactive | inhibition [12]: inactive | Activity [13]: 38.4% | inhibition [14]: inactive | Activity [15]: 87.7% | inhibition [16]: inactive | IC50 [17]: > 30 µM | Activity [18]: Non-toxic | IC50 [19]: 0.131 µM | clearance [20]: 1.41 mL/min/kg | inhibition [21]: inactive | Activity [22]: 89.9% | Activity [23]: 4.87% | AUC(0-inf) [24]: 46100 ng·h/mL | half-life [25]: 3.57 h | inhibition [26]: inactive | inhibition [27]: inactive | inhibition [28]: Dose-dependent-effect | inhibition [29]: inactive | Activity [30]: 25% | inhibition [31]: inactive | inhibition [32]: inactive | IC50 [33]: > 30 µM | Activity [34]: 0.063% | inhibition [35]: inactive | inhibition [36]: inactive | inhibition [37]: inactive | Activity [38]: 0.097% | inhibition [39]: inactive
